Test results taken from paper PMC8252726, “Automated Glycan Assembly of ^19F‐labeled Glycan Probes Enables High‐Throughput NMR Studies of Protein–Glycan Interactions” (Angewandte Chemie (International Ed. in English), 2021).

What was measured:
[1] = target: T1, Pmα23ST (Pasteurella multocida, UniProt Q15KI8); assay: CPMG […] NMR screening; assay type: binding; settings: without donor; also sialylated with CMP-Neu5Ac
T1 construct: gene Pm0188
T1 sequence (Q15KI8 26-412): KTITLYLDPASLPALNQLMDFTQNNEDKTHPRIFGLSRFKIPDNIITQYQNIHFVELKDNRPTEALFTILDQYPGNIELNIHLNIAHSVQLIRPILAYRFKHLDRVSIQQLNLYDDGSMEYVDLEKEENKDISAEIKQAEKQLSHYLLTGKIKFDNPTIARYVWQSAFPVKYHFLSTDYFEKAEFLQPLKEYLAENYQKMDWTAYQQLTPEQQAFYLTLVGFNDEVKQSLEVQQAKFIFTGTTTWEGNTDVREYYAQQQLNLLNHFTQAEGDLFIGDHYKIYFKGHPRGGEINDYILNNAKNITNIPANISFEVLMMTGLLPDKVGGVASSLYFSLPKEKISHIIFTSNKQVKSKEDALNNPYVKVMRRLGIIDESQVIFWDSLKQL

[2] = target: T2, Pdα26ST (Photobacterium damselae, UniProt O66375); assay: CPMG […] NMR screening; assay type: binding; settings: without donor CMP-Neu5Ac
T2 construct: gene bst
T2 sequence (O66375 16-675): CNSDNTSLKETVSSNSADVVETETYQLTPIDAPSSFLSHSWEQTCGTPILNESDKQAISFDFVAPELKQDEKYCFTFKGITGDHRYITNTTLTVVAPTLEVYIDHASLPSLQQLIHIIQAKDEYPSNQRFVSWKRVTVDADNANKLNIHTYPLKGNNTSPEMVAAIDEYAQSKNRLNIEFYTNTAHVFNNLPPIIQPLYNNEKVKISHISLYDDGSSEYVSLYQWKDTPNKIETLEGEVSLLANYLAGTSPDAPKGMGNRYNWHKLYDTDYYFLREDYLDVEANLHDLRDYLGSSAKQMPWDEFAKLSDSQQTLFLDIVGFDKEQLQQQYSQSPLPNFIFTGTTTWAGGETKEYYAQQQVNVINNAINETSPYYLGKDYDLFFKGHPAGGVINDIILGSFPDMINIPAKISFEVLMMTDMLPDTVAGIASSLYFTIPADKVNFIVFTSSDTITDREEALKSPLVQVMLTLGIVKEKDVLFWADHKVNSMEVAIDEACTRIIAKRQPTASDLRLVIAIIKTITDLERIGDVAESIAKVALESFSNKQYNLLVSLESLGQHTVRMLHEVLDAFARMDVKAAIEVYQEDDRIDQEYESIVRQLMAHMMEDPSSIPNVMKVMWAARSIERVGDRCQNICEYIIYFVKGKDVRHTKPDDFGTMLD

[3] = target: T3, BambL (Burkholderia ambifaria, UniProt Q0B4G1); assay: […] NMR titration (ligand-observed); assay type: binding
T3 construct: gene Bamb_5415; soluble lectin; 15N-labeled for TROSY
T3 sequence (Q0B4G1 entry or part of it): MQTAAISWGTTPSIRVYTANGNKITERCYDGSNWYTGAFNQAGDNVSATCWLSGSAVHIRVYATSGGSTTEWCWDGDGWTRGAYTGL

[4] = system: β‐galactosidase; assay: real-time […] NMR of product formation; assay type: biochemical; settings: Henry-Michaelis-Menten fit
[5] = target: T4, LecB (Pseudomonas aeruginosa, UniProt Q9HYN5); assay: […] and CPMG NMR screening; assay type: binding; settings: fucosylated F-glycans as a group
T4 construct: soluble lectin
T4 sequence (Q9HYN5 entry or part of it): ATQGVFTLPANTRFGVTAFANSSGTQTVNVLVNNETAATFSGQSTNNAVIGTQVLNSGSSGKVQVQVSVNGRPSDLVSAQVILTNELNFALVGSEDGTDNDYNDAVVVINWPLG

Compound | CPMG 19F NMR screening [1] | CPMG 19F NMR screening [2] | Kd [3] [µM] | Km [4] [µM] | 19F and CPMG NMR screening [5]
CC(=O)N[C@H]1[C@H](O[C@H]2[C@@H](O)[C@@H](CO)O[C@@H](O[C@H]3[C@H](F)[C@@H](O)[C@H](OCCCCCN)O[C@@H]3CO)[C@@H]2O)O[C@H](CO)[C@@H](O[C@@H]2O[C@H](CO)[C@H](O)[C@H](O)[C@H]2O)[C@@H]1O [F‐nLac4] | Shorter non‐branched glycans (F‐Lac and F‐nLac4) showed stronger binding than longer branched ones | Shorter non‐branched glycans (F‐Lac and F‐nLac4) showed stronger binding than longer branched ones | – | – | –
CC(=O)N[C@H]1[C@H](O[C@H]2[C@@H](O)[C@@H](CO)O[C@@H](O[C@H]3[C@H](F)[C@@H](O)[C@H](OCCCCCN)O[C@@H]3CO)[C@@H]2O)O[C@H](CO)[C@@H](O[C@@H]2O[C@H](CO)[C@H](O)[C@H](O)[C@H]2O[C@@H]2O[C@@H](C)[C@@H](O)[C@@H](O)[C@@H]2O)[C@@H]1O[C@@H]1O[C@@H](C)[C@@H](O)[C@@H](O)[C@@H]1O [F‐Le^y] | – | – | 14 ± 2 | – | –
NCCCCCO[C@@H]1O[C@H](CO)[C@@H](O[C@@H]2O[C@H](CO)[C@H](O)[C@H](O)[C@H]2O)[C@H](F)[C@H]1O [F‐Lac] | – | Shorter non‐branched glycans (F‐Lac and F‐nLac4) showed stronger binding than longer branched ones | – | 86.5 ± 10.5 | –
CC(=O)N[C@H]1[C@H](O[C@H]2[C@@H](O)[C@@H](CO)O[C@@H](O[C@H]3[C@H](F)[C@@H](O)[C@H](OCCCCCN)O[C@@H]3CO)[C@@H]2O)O[C@H](CO)[C@@H](O[C@@H]2O[C@H](CO)[C@H](O)[C@H](O)[C@H]2O[C@@H]2O[C@@H](C)[C@@H](O)[C@@H](O)[C@@H]2O)[C@@H]1O [F‐H type 2] | – | – | 9 ± 2 | – | bacterial (LecA, LecB, and BambL) and mammalian (DC‐SIGN ECD) lectins preferred fucosylated glycans
